Measured values as given in PubChem BioAssay AID1745844 (Carcinogenic Potency Database (CPDB), 2022).

Test system: rodent lifetime carcinogenesis bioassay, tumor incidence TD50
Assay: chronic cancer bioassays in animals – CPDB, compiled studies (AID 1745844)
Conditions: in feed

For `OCC(CO)(CBr)CBr`, the TD50 (mouse, strain B6C3F1, females, site: Harderian gland + lung + subcutaneous tissue, lesion: adenoma + adenoma, bilateral + carcinoma + alveolar/bronchiolar adenoma + alveolar/bronchiolar carcinoma + fibrosarcoma + sarcoma, dosed 104 weeks, study length 106 weeks) was 67.8 mg/kg/day, the TD50 (mouse, strain B6C3F1, females, site: Harderian gland, lesion: adenoma + adenoma, bilateral + carcinoma, dosed 104 weeks, study length 106 weeks) was 122 mg/kg/day and the TD50 (mouse, strain B6C3F1, females, site: Harderian gland, lesion: adenoma + adenoma, bilateral, dosed 104 weeks, study length 106 weeks) was 187 mg/kg/day. The TD50 (mouse, strain B6C3F1, females, site: Harderian gland, lesion: carcinoma, dosed 104 weeks, study length 106 weeks) was 323 mg/kg/day, the TD50 (mouse, strain B6C3F1, females, site: all sites, lesion: hemangioma + hemangiosarcoma, dosed 104 weeks, study length 106 weeks) was 846 mg/kg/day and the TD50 (mouse, strain B6C3F1, females, site: all sites, lesion: hemangiosarcoma, dosed 104 weeks, study length 106 weeks) was 1480 mg/kg/day. For the same compound, the TD50 (mouse, strain B6C3F1, females, site: any site (literature study), lesion: several types, types named in the paper, dosed 104 weeks, study length 106 weeks) was 57.3 mg/kg/day, the TD50 (mouse, strain B6C3F1, females, site: forestomach, lesion: squamous-cell papilloma, dosed 104 weeks, study length 106 weeks) was 446 mg/kg/day and the TD50 (mouse, strain B6C3F1, females, site: liver, lesion: hepatocellular adenoma + hepatoblastoma + hepatocellular carcinoma, dosed 104 weeks, study length 106 weeks) was 267 mg/kg/day. It also gave a TD50 (mouse, strain B6C3F1, females, site: liver, lesion: hepatocellular adenoma, dosed 104 weeks, study length 106 weeks) of 301 mg/kg/day, a TD50 (mouse, strain B6C3F1, females, site: lung, lesion: alveolar/bronchiolar adenoma + alveolar/bronchiolar carcinoma, dosed 104 weeks, study length 106 weeks) of 127 mg/kg/day and a TD50 (mouse, strain B6C3F1, females, site: lung, lesion: alveolar/bronchiolar adenoma, dosed 104 weeks, study length 106 weeks) of 171 mg/kg/day. The TD50 (mouse, strain B6C3F1, females, site: lung, lesion: alveolar/bronchiolar carcinoma, dosed 104 weeks, study length 106 weeks) was 398 mg/kg/day, the TD50 (mouse, strain B6C3F1, females, site: mammary gland, lesion: carcinoma, dosed 104 weeks, study length 106 weeks) was 1480 mg/kg/day and the TD50 (mouse, strain B6C3F1, females, site: subcutaneous tissue, lesion: fibrosarcoma + sarcoma, dosed 104 weeks, study length 106 weeks) was 322 mg/kg/day. The TD50 (mouse, strain B6C3F1, females, site: subcutaneous tissue, lesion: sarcoma, dosed 104 weeks, study length 106 weeks) was 350 mg/kg/day, the TD50 (mouse, strain B6C3F1, males, site: Harderian gland + kidney + lung, lesion: adenoma + adenoma, bilateral + carcinoma + carcinoma, bilateral + tubule adenoma + alveolar/bronchiolar adenoma + alveolar/bronchiol, dosed 104 weeks, study length 105 weeks) was 106 mg/kg/day and the TD50 (mouse, strain B6C3F1, males, site: Harderian gland, lesion: adenoma + adenoma, bilateral + carcinoma + carcinoma, bilateral, dosed 104 weeks, study length 105 weeks) was 155 mg/kg/day. For the same compound, the TD50 (mouse, strain B6C3F1, males, site: Harderian gland, lesion: adenoma + adenoma, bilateral, dosed 104 weeks, study length 105 weeks) was 191 mg/kg/day, the TD50 (mouse, strain B6C3F1, males, site: any site (literature study), lesion: several types, types named in the paper, dosed 104 weeks, study length 105 weeks) was 126 mg/kg/day and the TD50 (mouse, strain B6C3F1, males, site: forestomach, lesion: squamous-cell carcinoma + squamous-cell papilloma, dosed 104 weeks, study length 105 weeks) was 581 mg/kg/day. It also gave a TD50 (mouse, strain B6C3F1, males, site: kidney, lesion: tubule adenoma, dosed 104 weeks, study length 105 weeks) of 1190 mg/kg/day, a TD50 (mouse, strain B6C3F1, males, site: liver, lesion: hepatocellular adenoma + hepatoblastoma + hepatocellular carcinoma, dosed 104 weeks, study length 105 weeks) of 2480 mg/kg/day and a TD50 (mouse, strain B6C3F1, males, site: lung, lesion: alveolar/bronchiolar adenoma + alveolar/bronchiolar carcinoma, dosed 104 weeks, study length 105 weeks) of 218 mg/kg/day. The TD50 (mouse, strain B6C3F1, males, site: lung, lesion: alveolar/bronchiolar adenoma, dosed 104 weeks, study length 105 weeks) was 270 mg/kg/day, the TD50 (mouse, strain B6C3F1, males, site: lung, lesion: alveolar/bronchiolar carcinoma, dosed 104 weeks, study length 105 weeks) was 334 mg/kg/day and the TD50 (mouse, strain B6C3F1, males, site: thyroid gland, lesion: follicular-cell adenoma, dosed 104 weeks, study length 105 weeks) was 835 mg/kg/day. It also gave a TD50 (rat, strain Fischer 344, females, site: all sites, lesion: mononuclear-cell leukemia, dosed 104 weeks, study length 105 weeks) of 406 mg/kg/day, a TD50 (rat, strain Fischer 344, females, site: any site (literature study), lesion: several types, types named in the paper, dosed 104 weeks, study length 105 weeks) of 94.4 mg/kg/day and a TD50 (rat, strain Fischer 344, females, site: esophagus + mammary gland + palate + thyroid gland + tongue, lesion: squamous-cell papilloma + adenoma + carcinoma + fibroadenoma + squamous-cell carcinoma + follicular-cell adenoma + follicular-cell c, dosed 104 weeks, study length 105 weeks) of 84.3 mg/kg/day. It also gave a TD50 (rat, strain Fischer 344, females, site: esophagus, lesion: squamous-cell papilloma, dosed 104 weeks, study length 105 weeks) of 1410 mg/kg/day, a TD50 (rat, strain Fischer 344, females, site: mammary gland, lesion: adenoma + carcinoma + fibroadenoma, dosed 104 weeks, study length 105 weeks) of 83.8 mg/kg/day and a TD50 (rat, strain Fischer 344, females, site: mammary gland, lesion: adenoma + fibroadenoma, dosed 104 weeks, study length 105 weeks) of 83 mg/kg/day. It also gave a TD50 (rat, strain Fischer 344, females, site: mammary gland, lesion: fibroadenoma, dosed 104 weeks, study length 105 weeks) of 83 mg/kg/day, a TD50 (rat, strain Fischer 344, females, site: palate + tongue, lesion: squamous-cell carcinoma + squamous-cell papilloma, dosed 104 weeks, study length 105 weeks) of 1010 mg/kg/day and a TD50 (rat, strain Fischer 344, females, site: palate + tongue, lesion: squamous-cell papilloma, dosed 104 weeks, study length 105 weeks) of 1240 mg/kg/day. It also gave a TD50 (rat, strain Fischer 344, females, site: pituitary gland, lesion: pars distalis adenoma, dosed 104 weeks, study length 105 weeks) of 300 mg/kg/day, a TD50 (rat, strain Fischer 344, females, site: subcutaneous tissue, lesion: fibrosarcoma + fibroma + sarcoma, dosed 104 weeks, study length 105 weeks) of 1370 mg/kg/day and a TD50 (rat, strain Fischer 344, females, site: subcutaneous tissue, lesion: fibrosarcoma + sarcoma, dosed 104 weeks, study length 105 weeks) of 4200 mg/kg/day. For the same compound, the TD50 (rat, strain Fischer 344, females, site: thyroid gland, lesion: follicular-cell adenoma + follicular-cell carcinoma, dosed 104 weeks, study length 105 weeks) was 1670 mg/kg/day, the TD50 (rat, strain Fischer 344, females, site: thyroid gland, lesion: follicular-cell adenoma, dosed 104 weeks, study length 105 weeks) was 2160 mg/kg/day and the TD50 (rat, strain Fischer 344, females, site: tongue, lesion: squamous-cell carcinoma + squamous-cell papilloma, dosed 104 weeks, study length 105 weeks) was 1260 mg/kg/day. For the same compound, the TD50 (rat, strain Fischer 344, females, site: tongue, lesion: squamous-cell papilloma, dosed 104 weeks, study length 105 weeks) was 1360 mg/kg/day, the TD50 (rat, strain Fischer 344, females, site: uterus, lesion: endometrial stromal polyp + endometrial stromal sarcoma, dosed 104 weeks, study length 105 weeks) was 859 mg/kg/day and the TD50 (rat, strain Fischer 344, females, site: uterus, lesion: endometrial stromal polyp, dosed 104 weeks, study length 105 weeks) was 904 mg/kg/day. The TD50 (rat, strain Fischer 344, males, site: Zymbal's gland, lesion: adenoma + carcinoma + carcinoma, bilateral, dosed 12 weeks, study length 103 weeks) was 138 mg/kg/day, the TD50 (rat, strain Fischer 344, males, site: Zymbal's gland, lesion: adenoma + carcinoma, dosed 104 weeks, study length 105 weeks) was 1600 mg/kg/day and the TD50 (rat, strain Fischer 344, males, site: Zymbal's gland, lesion: adenoma, dosed 104 weeks, study length 105 weeks) was 1950 mg/kg/day. For the same compound, the TD50 (rat, strain Fischer 344, males, site: Zymbal's gland, lesion: carcinoma + carcinoma, bilateral, dosed 12 weeks, study length 103 weeks) was 138 mg/kg/day, the TD50 (rat, strain Fischer 344, males, site: all sites + colon + esophagus + gingiva + jejunum + lung + mammary gland + palate + skin + subcutaneous tissue + thyroid gland + tongue + urinar, lesion: mononuclear-cell leukemia + mesothelioma, malignant + adenomatous polyp + squamous-cell papilloma + squamous-cell carcinoma + carc, dosed 104 weeks, study length 105 weeks) was 68.1 mg/kg/day and the TD50 (rat, strain Fischer 344, males, site: all sites, lesion: mesothelioma, malignant, dosed 12 weeks, study length 103 weeks) was 28.4 mg/kg/day. The TD50 (rat, strain Fischer 344, males, site: all sites, lesion: mesothelioma, malignant, dosed 104 weeks, study length 105 weeks) was 335 mg/kg/day, the TD50 (rat, strain Fischer 344, males, site: all sites, lesion: mononuclear-cell leukemia, dosed 12 weeks, study length 103 weeks) was 22.5 mg/kg/day and the TD50 (rat, strain Fischer 344, males, site: all sites, lesion: mononuclear-cell leukemia, dosed 104 weeks, study length 105 weeks) was 95.8 mg/kg/day. It also gave a TD50 (rat, strain Fischer 344, males, site: any site (literature study), lesion: several types, types named in the paper, dosed 12 weeks, study length 103 weeks) of 6.25 mg/kg/day, a TD50 (rat, strain Fischer 344, males, site: any site (literature study), lesion: several types, types named in the paper, dosed 104 weeks, study length 105 weeks) of 63.8 mg/kg/day and a TD50 (rat, strain Fischer 344, males, site: colon + rectum, lesion: adenomatous polyp + carcinoma, dosed 12 weeks, study length 103 weeks) of 146 mg/kg/day. It also gave a TD50 (rat, strain Fischer 344, males, site: colon + rectum, lesion: adenomatous polyp, dosed 12 weeks, study length 103 weeks) of 152 mg/kg/day, a TD50 (rat, strain Fischer 344, males, site: colon, lesion: adenomatous polyp, dosed 104 weeks, study length 105 weeks) of 997 mg/kg/day and a TD50 (rat, strain Fischer 344, males, site: esophagus, lesion: squamous-cell papilloma, dosed 104 weeks, study length 105 weeks) of 1390 mg/kg/day. The TD50 (rat, strain Fischer 344, males, site: forestomach, lesion: squamous-cell papilloma, dosed 12 weeks, study length 103 weeks) was 217 mg/kg/day, the TD50 (rat, strain Fischer 344, males, site: forestomach, lesion: squamous-cell papilloma, dosed 104 weeks, study length 105 weeks) was 16000 mg/kg/day and the TD50 (rat, strain Fischer 344, males, site: gingiva + palate + tongue, lesion: squamous-cell carcinoma + squamous-cell papilloma, dosed 104 weeks, study length 105 weeks) was 285 mg/kg/day. The TD50 (rat, strain Fischer 344, males, site: ileum + jejunum, lesion: carcinoma + adenomatous polyp, dosed 12 weeks, study length 103 weeks) was 363 mg/kg/day, the TD50 (rat, strain Fischer 344, males, site: ileum + jejunum, lesion: carcinoma, dosed 12 weeks, study length 103 weeks) was 445 mg/kg/day and the TD50 (rat, strain Fischer 344, males, site: jejunum, lesion: carcinoma, dosed 104 weeks, study length 105 weeks) was 5660 mg/kg/day.
